What was measured:
[1] = Aerosol performance by Next Generation Impactor (NGI); format: physicochemical
Excerpt: After aerosolization of 3 doses from the inhaler device, the NGI apparatus was disassembled and the amounts of drug deposited in the stages were recovered by washing with a solvent mixture and then quantified by High-Performance Liquid Chromatography (HPLC).

[2] = Uniformity of distribution of the active ingredients in the blend (10 samples, HPLC); format: physicochemical; conditions: dry powder formulation of Example 2; mean value ± RSD
Method: The uniformity of distribution of the active ingredients was evaluated by withdrawing 10 samples from different parts of the blend and evaluated by HPLC

[3] = Batch CY (Cyclomix), reference powder formulation of WO 2015/004243
[4] = Batch MF (mechano-fusion), reference powder formulation of WO 2015/004243
[5] = dry powder formulation of Example 2, DPI of WO 2004/012801
[6] = dry powder formulation of Example 2, DPI of WO 2004/012801, 2.0-5.0 micron
[7] = dry powder formulation of Example 2, DPI of WO 2004/012801, particle size <= 5.0 micron
[8] = dry powder formulation of Example 2, multidose DPI of WO 2004/012801
[9] = pMDI HFA solution formulation of WO 2011/076843 (reference Example 4)

| Compound | Delivered Dose [1, 3] [µg] | Extrafine Particle Fraction < 2 μm [1, 3] [%] | Extrafine Particle Mass < 2 μm [1, 3] [µg] | Fine Particle Fraction [1, 3] [%] | Fine Particle Mass [1, 3] [µg] | MMAD [1, 3] [μm] | Mid Fine Particle Fraction [1, 3] [%] | Mid Fine Particle Mass [1, 3] [µg] | Delivered Dose [1, 4] [µg] | Extrafine Particle Fraction < 2 μm [1, 4] [%] | Extrafine Particle Mass < 2 μm [1, 4] [µg] | Fine Particle Fraction [1, 4] [%] | Fine Particle Mass [1, 4] [µg] | MMAD [1, 4] [μm] | Mid Fine Particle Fraction [1, 4] [%] | Mid Fine Particle Mass [1, 4] [µg] | Extrafine Particle Fraction < 1 μm [1, 5] [%] | Extrafine Particle Fraction < 2 μm [1, 5] [%] | Extrafine Particle Mass < 1 μm [1, 5] [µg] | Extrafine Particle Mass < 2 μm [1, 5] [µg] | also measured |
| --- | --- | --- | --- | --- | --- | --- | --- | --- | --- | --- | --- | --- | --- | --- | --- | --- | --- | --- | --- | --- | --- |
| C[N+]1(C)CCC(OC(=O)C(O)(c2ccccc2)C2CCCC2)C1 (stereo not drawn) [GB, Glycopyrronium bromide] | 11.6 | 34.9 | 4.0 | 57.2 | 6.6 | 1.8 | 22.3 | 2.6 | 11.9 | 33.2 | 4.0 | 53.8 | 6.4 | 1.4 | 20.6 | 2.5 | 9.8 | 26.4 | 1.1 | 2.9 | Fine Particle Fraction [1, 5]: 48.1%; MMAD [1, 5]: 1.9 μm; Mid Fine Particle Fraction [1, 6]: 21.6%; Mid Fine Particle Mass [1, 6]: 2.4 µg; Fine Particle Mass [1, 7]: 5.4 µg; Delivered Dose [1, 8]: 11.1 µg; Delivered Dose [1, 9]: 10.6 µg; Extrafine Particle Fraction < 2 μm [1, 9]: 40.2%; Extrafine Particle Mass < 2 μm [1, 9]: 4.2 µg; Fine Particle Fraction [1, 9]: 45.1%; Fine Particle Mass [1, 9]: 4.8 µg; MMAD [1, 9]: 1.0 μm; Mid Fine Particle Fraction [1, 9]: 5.0%; Mid Fine Particle Mass [1, 9]: 0.5 µg |
| CCC(=O)OCC(=O)[C@@]1(OC(=O)CC)[C@@H](C)C[C@H]2[C@@H]3CCC4=CC(=O)C=C[C@]4(C)[C@@]3(Cl)[C@@H](O)C[C@@]21C [BDP, Beclometasone dipropionate] | 90.6 | 53.9 | 48.8 | 71.2 | 64.5 | 1.1 | 17.3 | 15.7 | 95.7 | 52.3 | 50.0 | 69.9 | 66.9 | 1.1 | 17.6 | 16.9 | 13.9 | 32.1 | 12.4 | 28.5 | Uniformity of distribution [2]: 100.5 (±1.8); Fine Particle Fraction [1, 5]: 49.3%; MMAD [1, 5]: 1.6 μm; Mid Fine Particle Fraction [1, 6]: 17.1%; Mid Fine Particle Mass [1, 6]: 15.2 µg; Fine Particle Mass [1, 7]: 43.6 µg; Delivered Dose [1, 8]: 88.5 µg; Delivered Dose [1, 9]: 87.8 µg; Extrafine Particle Fraction < 2 μm [1, 9]: 40.9%; Extrafine Particle Mass < 2 μm [1, 9]: 35.9 µg; Fine Particle Fraction [1, 9]: 46.0%; Fine Particle Mass [1, 9]: 40.4 µg; MMAD [1, 9]: 1.0 μm; Mid Fine Particle Fraction [1, 9]: 5.2%; Mid Fine Particle Mass [1, 9]: 4.5 µg |

Source: US10772896B2, “Process for preparing a dry powder formulation comprising an anticholinergic, a corticosteroid and a beta-adrenergic” (CHIESI FARMACEUTICI S.P.A., priority 2015, dated 2020)
